# In US11911346B2, “Orally administrated therapeutic for treating mild cognitive impairment (MCI) and improving human cognitive function” (BrainCare LLC, priority 2021, dated 2024):
# System: cognitive function of participants with Subjective Cognitive Decline
# Assay: Cognitive Failures Questionnaire (CFQ), 8-week randomized study of one or two BCP capsules daily
# Assay type: in vivo, human
# Details: two capsules daily (180 mg BCP); for CFQ score: Do you bump into people? / CFQ score: Do you confuse left and right when giving people directions? / CFQ score: Do you daydream when you ought to be listening to something? / CFQ score: Do you fail to hear people speaking to you when you are doing something? / CFQ score: Do you fail to listen to people's names when you are meeting them for the first time? / CFQ score: Do you fail to notice signposts on the road? / CFQ score: Do you fail to see what you want in a supermarket (although it's there)? / CFQ score: Do you find that you drop things? / CFQ score: Do you find that you forget appointments? / CFQ score: Do you find you accidentally misplace things like placing the fruit in the cupboard and the bowl in the refrigerator? / CFQ score: Do you find you can't quite remember something although it's “on the tip of your tongue”? / CFQ score: Do you find you can't think of anything to say? / CFQ score: Do you find you forget people's names? / CFQ score: Do you find you forget what you came to the store to buy? / CFQ score: Do you find you forget whether you've turned off a light or locked the door? / CFQ score: Do you find you forget which way to turn on a road you know well but rarely use? / CFQ score: Do you find you forget why you went from one place of the house to the other? / CFQ score: Do you find yourself suddenly wondering if you used a word correctly? / CFQ score: Do you forget where you put something like a newspaper or a book? / CFQ score: Do you have trouble making up your mind? / CFQ score: Do you lose track of paying bills? / CFQ score: Do you lose your temper and regret it? / CFQ score: Do you read something and find you haven't been thinking about it and must read it again? / CFQ score: Do you say something and realize afterwards that it might be taken as an insult? / CFQ score: Do you start doing one thing at home and get distracted and do something else (unintentionally)? / Distractibility summed sub-score of CFQ / False triggering summed sub-score of CFQ / Forgetfulness summed sub-score of CFQ / Total CFQ summed sub-score: lower is better
# [1] = week 4, listed as beta-caryophyllene
# [2] = week 8, listed as beta-caryophyllene
smiles,measurement,setting,value
"C=C1CC/C=C(\C)CC[C@@H]2[C@@H]1CC2(C)C [BCP, beta-caryophyllene]",CFQ % better vs. baseline: Do you find yourself suddenly wondering if you used a word correctly?,week 4,29% better
same,CFQ % better vs. baseline: Do you forget where you put something like a newspaper or a book?,week 4,19%
same,CFQ % better vs. baseline: Do you have trouble making up your mind?,week 4,21% better
same,CFQ % better vs. baseline: Do you lose track of paying bills?,week 4,10% better
same,CFQ % better vs. baseline: Do you lose your temper and regret it?,week 4,26% better
same,CFQ % better vs. baseline: Do you read something and find you haven't been thinking about it and must read it again?,week 4,39%
same,CFQ % better vs. baseline: Do you start doing one thing at home and get distracted and do something else (unintentionally)?,week 4,30%
same,CFQ change vs. baseline: Do you say something and realize afterwards that it might be taken as an insult?,week 4,No change
same,"Distractibility summed sub-score of CFQ, % better vs. baseline",week 4,20%
same,"False triggering summed sub-score of CFQ, % better vs. baseline",week 4,33%
same,"Forgetfulness summed sub-score of CFQ, % better vs. baseline",week 4,27%
same,"Total CFQ summed sub-score, % better vs. baseline",week 4,25%
same,CFQ % better vs. baseline: Do you daydream when you ought to be listening to something?,[1],28% better
same,CFQ % better vs. baseline: Do you find you can't quite remember something although it's “on the tip of your tongue”?,[1],20% better
same,CFQ % better vs. baseline: Do you find you forget whether you've turned off a light or locked the door?,[1],45% better
same,CFQ % better vs. baseline: Do you find you forget why you went from one place of the house to the other?,[1],39% better
same,CFQ % better vs. baseline: Do you forget where you put something like a newspaper or a book?,[1],19% better
same,CFQ % better vs. baseline: Do you read something and find you haven't been thinking about it and must read it again?,[1],39% better
same,CFQ % better vs. baseline: Do you start doing one thing at home and get distracted and do something else (unintentionally)?,[1],30% better
same,"Distractibility summed sub-score of CFQ, % better vs. baseline",[1],20% better
same,"False triggering summed sub-score of CFQ, % better vs. baseline",[1],33% better
same,"Forgetfulness summed sub-score of CFQ, % better vs. baseline",[1],27% better
same,"Total CFQ summed sub-score, % better vs. baseline",[1],25% better
same,CFQ score: Do you bump into people?,week 4,0.6 ± 0.8
same,CFQ score: Do you confuse left and right when giving people directions?,week 4,0.7 ± 0.8
same,CFQ score: Do you daydream when you ought to be listening to something?,week 4,1.3 ± 0.9
same,CFQ score: Do you fail to hear people speaking to you when you are doing something?,week 4,1.5 ± 1.1
same,CFQ score: Do you fail to listen to people's names when you are meeting them for the first time?,week 4,1.8 ± 1.2
same,CFQ score: Do you fail to notice signposts on the road?,week 4,0.7 ± 0.7
same,CFQ score: Do you fail to see what you want in a supermarket (although it's there)?,week 4,1.1 ± 1.0
same,CFQ score: Do you find that you drop things?,week 4,1.1 ± 0.7
same,CFQ score: Do you find that you forget appointments?,week 4,0.7 ± 0.8
same,CFQ score: Do you find you accidentally misplace things like placing the fruit in the cupboard and the bowl in the refrigerator?,week 4,0.7 ± 0.9
same,CFQ score: Do you find you can't quite remember something although it's “on the tip of your tongue”?,week 4,2.0 ± 1.0^
same,CFQ score: Do you find you can't think of anything to say?,week 4,0.8 ± 0.8
same,CFQ score: Do you find you forget people's names?,week 4,2.0 ± 0.9
same,CFQ score: Do you find you forget what you came to the store to buy?,week 4,1.0 ± 0.9
same,CFQ score: Do you find you forget whether you've turned off a light or locked the door?,week 4,1.1 ± 0.9
same,CFQ score: Do you find you forget which way to turn on a road you know well but rarely use?,week 4,0.6 ± 0.8
same,CFQ score: Do you find you forget why you went from one place of the house to the other?,week 4,1.4 ± 0.7^
same,CFQ score: Do you find yourself suddenly wondering if you used a word correctly?,week 4,1.0 ± 1.1
same,CFQ score: Do you forget where you put something like a newspaper or a book?,week 4,1.7 ± 0.9^
same,CFQ score: Do you have trouble making up your mind?,week 4,1.5 ± 1.1
same,CFQ score: Do you lose track of paying bills?,week 4,0.9 ± 1.0
same,CFQ score: Do you lose your temper and regret it?,week 4,1.1 ± 0.8
same,CFQ score: Do you read something and find you haven't been thinking about it and must read it again?,week 4,1.5 ± 0.9
same,CFQ score: Do you say something and realize afterwards that it might be taken as an insult?,week 4,1.4 ± 0.9
same,CFQ score: Do you start doing one thing at home and get distracted and do something else (unintentionally)?,week 4,1.9 ± 0.8
same,Distractibility summed sub-score of CFQ,week 4,10 ± 5
same,False triggering summed sub-score of CFQ,week 4,7 ± 4^
same,Forgetfulness summed sub-score of CFQ,week 4,12 ± 5^
same,Total CFQ summed sub-score,week 4,29 ± 14
same,CFQ % better vs. baseline: Do you bump into people?,week 8,29% better
same,CFQ % better vs. baseline: Do you confuse left and right when giving people directions?,week 8,22% better
same,CFQ % better vs. baseline: Do you daydream when you ought to be listening to something?,week 8,33%
same,CFQ % better vs. baseline: Do you fail to hear people speaking to you when you are doing something?,week 8,23% better
same,CFQ % better vs. baseline: Do you fail to listen to people's names when you are meeting them for the first time?,week 8,17% better
same,CFQ % better vs. baseline: Do you fail to notice signposts on the road?,week 8,20% better
same,CFQ % better vs. baseline: Do you fail to see what you want in a supermarket (although it's there)?,week 8,23% better
same,CFQ % better vs. baseline: Do you find that you drop things?,week 8,33% better
same,CFQ % better vs. baseline: Do you find that you forget appointments?,week 8,50% better
same,CFQ % better vs. baseline: Do you find you accidentally misplace things like placing the fruit in the cupboard and the bowl in the refrigerator?,week 8,63%
same,CFQ % better vs. baseline: Do you find you can't quite remember something although it's “on the tip of your tongue”?,week 8,12% better
same,CFQ % better vs. baseline: Do you find you can't think of anything to say?,week 8,27% better
same,CFQ % better vs. baseline: Do you find you forget people's names?,week 8,20% better
same,CFQ % better vs. baseline: Do you find you forget what you came to the store to buy?,week 8,27% better
same,CFQ % better vs. baseline: Do you find you forget whether you've turned off a light or locked the door?,week 8,40%
same,CFQ % better vs. baseline: Do you find you forget which way to turn on a road you know well but rarely use?,week 8,44% better
same,CFQ % better vs. baseline: Do you find you forget why you went from one place of the house to the other?,week 8,39%
same,CFQ % better vs. baseline: Do you find yourself suddenly wondering if you used a word correctly?,week 8,43% better
same,CFQ % better vs. baseline: Do you forget where you put something like a newspaper or a book?,week 8,29%
same,CFQ % better vs. baseline: Do you have trouble making up your mind?,week 8,26% better
same,CFQ % better vs. baseline: Do you lose track of paying bills?,week 8,30% better
same,CFQ % better vs. baseline: Do you lose your temper and regret it?,week 8,33% better
same,CFQ % better vs. baseline: Do you read something and find you haven't been thinking about it and must read it again?,week 8,39%
same,CFQ % better vs. baseline: Do you say something and realize afterwards that it might be taken as an insult?,week 8,14% better
same,CFQ % better vs. baseline: Do you start doing one thing at home and get distracted and do something else (unintentionally)?,week 8,30%
same,"Distractibility summed sub-score of CFQ, % better vs. baseline",week 8,29%
same,"False triggering summed sub-score of CFQ, % better vs. baseline",week 8,36%
same,"Forgetfulness summed sub-score of CFQ, % better vs. baseline",week 8,27%
same,"Total CFQ summed sub-score, % better vs. baseline",week 8,30%
same,CFQ % better vs. baseline: Do you daydream when you ought to be listening to something?,[2],33% better
same,CFQ % better vs. baseline: Do you find you accidentally misplace things like placing the fruit in the cupboard and the bowl in the refrigerator?,[2],63% better
same,CFQ % better vs. baseline: Do you find you forget whether you've turned off a light or locked the door?,[2],40% better
same,CFQ % better vs. baseline: Do you find you forget why you went from one place of the house to the other?,[2],39% better
same,CFQ % better vs. baseline: Do you forget where you put something like a newspaper or a book?,[2],29% better
same,CFQ % better vs. baseline: Do you read something and find you haven't been thinking about it and must read it again?,[2],39% better
same,CFQ % better vs. baseline: Do you start doing one thing at home and get distracted and do something else (unintentionally)?,[2],30% better
same,"Distractibility summed sub-score of CFQ, % better vs. baseline",[2],29% better
same,"False triggering summed sub-score of CFQ, % better vs. baseline",[2],36% better
same,"Forgetfulness summed sub-score of CFQ, % better vs. baseline",[2],27% better
same,"Total CFQ summed sub-score, % better vs. baseline",[2],30% better
same,CFQ score: Do you bump into people?,week 8,0.5 ± 0.6
same,CFQ score: Do you confuse left and right when giving people directions?,week 8,0.7 ± 0.8
same,CFQ score: Do you daydream when you ought to be listening to something?,week 8,1.2 ± 0.9
same,CFQ score: Do you fail to hear people speaking to you when you are doing something?,week 8,1.3 ± 1.1
same,CFQ score: Do you fail to listen to people's names when you are meeting them for the first time?,week 8,1.9 ± 1.1
same,CFQ score: Do you fail to notice signposts on the road?,week 8,0.8 ± 0.7
same,CFQ score: Do you fail to see what you want in a supermarket (although it's there)?,week 8,1.0 ± 0.8
same,CFQ score: Do you find that you drop things?,week 8,1.0 ± 0.7
same,CFQ score: Do you find that you forget appointments?,week 8,0.5 ± 0.5
same,CFQ score: Do you find you accidentally misplace things like placing the fruit in the cupboard and the bowl in the refrigerator?,week 8,0.3 ± 0.5
same,CFQ score: Do you find you can't quite remember something although it's “on the tip of your tongue”?,week 8,2.2 ± 0.8
same,CFQ score: Do you find you can't think of anything to say?,week 8,0.8 ± 0.7
same,CFQ score: Do you find you forget people's names?,week 8,2.0 ± 1.0
same,CFQ score: Do you find you forget what you came to the store to buy?,week 8,1.1 ± 0.9
same,CFQ score: Do you find you forget whether you've turned off a light or locked the door?,week 8,1.2 ± 0.7
same,CFQ score: Do you find you forget which way to turn on a road you know well but rarely use?,week 8,0.5 ± 0.6
same,CFQ score: Do you find you forget why you went from one place of the house to the other?,week 8,1.4 ± 0.8^
same,CFQ score: Do you find yourself suddenly wondering if you used a word correctly?,week 8,0.8 ± 0.9
same,CFQ score: Do you forget where you put something like a newspaper or a book?,week 8,1.5 ± 0.9^
same,CFQ score: Do you have trouble making up your mind?,week 8,1.4 ± 0.9
same,CFQ score: Do you lose track of paying bills?,week 8,0.7 ± 0.9
same,CFQ score: Do you lose your temper and regret it?,week 8,1.0 ± 0.7
same,CFQ score: Do you read something and find you haven't been thinking about it and must read it again?,week 8,1.4 ± 0.8
same,CFQ score: Do you say something and realize afterwards that it might be taken as an insult?,week 8,1.2 ± 0.7
same,CFQ score: Do you start doing one thing at home and get distracted and do something else (unintentionally)?,week 8,1.9 ± 0.7
same,Distractibility summed sub-score of CFQ,week 8,9 ± 4
same,False triggering summed sub-score of CFQ,week 8,7 ± 4^
same,Forgetfulness summed sub-score of CFQ,week 8,12 ± 5^
same,Total CFQ summed sub-score,week 8,27 ± 11
